Results published in article PMC3361975 (Biochemistry, 2012).
Where two headings read alike, the source gives them in different places.

System: PTDH ortholog from Nostoc sp. 7120
Experiment: initial rate of NADH formation at […] nm, Michaelis-Menten fit
Assay type: biochemical, Nostoc sp. PCC 7120
Conditions: read-out: Nostoc sp. 7120, 100 mM MOPS pH 7.25, 30 °C

For `O=[PH](O)O` [phosphite], the Km (co-substrate NAD+) was 20.2 µM.
With `NC(=O)c1ccc[n+]([C@@H]2O[C@H](COP(=O)(O)OP(=O)(O)OC[C@H]3O[C@@H](n4cnc5c(N)ncnc54)[C@H](O)[C@@H]3O)[C@@H](O)[C@H]2O)c1` [NAD^+] the Km (co-substrate phosphite) was 10.3 µM.
